The source of these data is patent US9119853B2, “Sanglifehrin based compounds” (priority 2010, dated 2015).

SMILES strings stand for the structures. In brackets after ≈: the same amount, converted by molar mass. Read-outs that look alike come from different tables or passages of the source.

Usually EC50 stands for the concentration needed to bring the measured effect to its halfway point. The EC90 is the point of the concentration-response curve where the effect stands at 90%. For orientation: solubility means the dissolved amount per volume that the medium holds. Read a low solubility as a poorly soluble substance. The term CC50 denotes the concentration that lowers cell viability or growth by half. Low readings indicate harm at low concentration, high ones better tolerance by the cells. As a reminder, the Solubility is the dissolved amount per volume that the medium holds. Lower therefore signals a poorly soluble substance.

Series [1] concerns HCV genotype 1b I389luc-ubi-neo/NS3-3'/5.1 replicon in Huh5.2 cells. Briefly: microbe, parasite or virus in culture. It counts as cell-based, Hepatitis C Virus.
Another series in a line: Solubility in PBS pH 7.4. To be noted: for solubility compared to sanglifehrin A (5) and cyclosporine A (1) (in words): PBS pH 7.4; for solubility at 4 h: PBS, pH 7.4, aqueous buffer, kinetic from dmso stock.
Series [2] can be described thus: Anti-metabolic effect (MTS) in the replicon cell line. To be noted: human.
The conditions of series [3]: pH 7.4.
Another series has as its system Huh5.2 cells. The series can be described thus: Anti-metabolic effect (MTS) in the replicon cell line. To be noted: Huh5.2 cells, MTS, 72 hours. (In antiviral work, replicon cells carry a viral genome segment that copies itself.)
Where [4] appears, read: Hepatitis C virus, Huh-5-2, 72 h.

For the molecule `CON(C)C(=O)/C=C/C=C(\C)[C@@H]1C/C=C/C=C/[C@H](O)[C@H](C)[C@@H](O)[C@@H](CCC(C)=O)C(=O)N[C@@H](C(C)C)C(=O)N[C@@H](Cc2cccc(O)c2)C(=O)N2CCCC(N2)C(=O)O1` (some centres unmarked) [compound 10], in series [1], the “Selectivity index (CC50/EC50)” value is greater than 617 and the “potency in the Huh5.2 replicon assay (in words)” value (“potency” below) is recorded as “very potent”. Besides, in series [1] (setting [4]), the midpoint of the response, the EC50, lay at 0.162 µM and the concentration for an effect of 90% (EC90) was determined as 0.921 µM. In addition, in the series “Solubility in PBS pH 7.4”, the “solubility compared to sanglifehrin A (5) and cyclosporine A (1) (in words)” value was “increased solubility”; the solubility at 4 h is greater than 100 µM. For the same molecule, the CC50 at 72 h in series [2] was greater than 100 µM.

In the case of `CCN(CC)C(=O)/C=C/C=C(\C)[C@@H]1C/C=C/C=C/[C@H](O)[C@H](C)[C@@H](O)[C@@H](CCC(C)=O)C(=O)N[C@@H](C(C)C)C(=O)N[C@@H](Cc2cccc(O)c2)C(=O)N2CCCC(N2)C(=O)O1` (some centres unmarked) [compound 13], in series [1], the “Selectivity index (CC50/EC50)” value was greater than 490 and the “potency” value is “very potent”. Moreover, in series [1] (setting [4]), a half-maximal effect (EC50) was put at 0.204 µM and the 90% effect level (EC90) was put at 1.2 µM. Besides, in “Solubility in PBS pH 7.4”, the “solubility compared to sanglifehrin A (5) and cyclosporine A (1) (in words)” value is given as “increased solubility”; the solubility at 4 h was greater than 100 µM. Also, the cytotoxic concentration (CC50) at 72 h in series [2] was greater than 100 µM.

Regarding `CC(=O)CC[C@H]1C(=O)N[C@@H](C(C)C)C(=O)N[C@@H](Cc2cccc(O)c2)C(=O)N2CCCC(N2)C(=O)O[C@H](/C(C)=C/C=C/C(=O)NC(C)C)C/C=C/C=C/[C@H](O)[C@H](C)[C@H]1O` (some centres unmarked) [compound 16], in series [1], the “Selectivity index (CC50/EC50)” value is on record as greater than 179 and the “potency” value is given as “very potent”. In series [1] (setting [4]), this molecule registered an EC50 of 0.56 µM and a 90% effect concentration (EC90) of 4.6 µM. The CC50 at 72 h in series [2] was greater than 100 µM.

As to `CNC(=O)/C=C/C=C(\C)[C@@H]1C/C=C/C=C/[C@H](O)[C@H](C)[C@@H](O)[C@@H](CCC(C)=O)C(=O)N[C@@H](C(C)C)C(=O)N[C@@H](Cc2cccc(O)c2)C(=O)N2CCCC(N2)C(=O)O1` (some centres unmarked) [compound 19], in series [1], the “Selectivity index (CC50/EC50)” value is given as greater than 80. In series [1] (setting [4]), this molecule yielded an EC50 of 8 µM and an EC90 of 60.2 µM. Besides, in the series “Solubility in PBS pH 7.4”, the “solubility compared to sanglifehrin A (5) and cyclosporine A (1) (in words)” value was “increased solubility”; the solubility at 4 h was greater than 100 µM. The half-maximal cytotoxic concentration (CC50) at 72 h in series [2] is greater than 100 µM.

For `CC(=O)CC[C@H]1C(=O)N[C@@H](C(C)C)C(=O)N[C@@H](Cc2cccc(O)c2)C(=O)N2CCCC(N2)C(=O)O[C@H](/C(C)=C/C=C/C(=O)N(C)C)C/C=C/C=C/[C@H](O)[C@H](C)[C@H]1O` (some centres unmarked) [compound 22], in series [1], the “Selectivity index (CC50/EC50)” value is greater than 287 and the “potency” value is on record as “very potent”. In series [1] (setting [4]), this molecule had an EC50 of 0.349 µM and an EC90 of 6.2 µM. In the series “Solubility in PBS pH 7.4”, the “solubility compared to sanglifehrin A (5) and cyclosporine A (1) (in words)” value is reported as “increased solubility”; the solubility at 4 h is greater than 100 µM. Further, in series [2], the cytotoxic concentration (CC50) at 72 h is greater than 100 µM.

As to `C=CCNC(=O)/C=C/C=C(\C)[C@@H]1C/C=C/C=C/[C@H](O)[C@H](C)[C@@H](O)[C@@H](CCC(C)=O)C(=O)N[C@@H](C(C)C)C(=O)N[C@@H](Cc2cccc(O)c2)C(=O)N2CCCC(N2)C(=O)O1` (some centres unmarked) [compound 25], in series [1] (setting [4]), it took 1.6 µM to reach a half-maximal effect (EC50) and the EC90 was 8.5 µM. Besides, in series [3], the Solubility is 96 µM (≈ 78.7 µg/mL). The “solubility compared to sanglifehrin A (5) and cyclosporine A (1) (in words)” value in “Solubility in PBS pH 7.4” was “increased solubility”. In addition, it took 48.4 µM to reach half-maximal cytotoxicity in series [2] (CC50 at 72 h).

For the molecule `C/C=C/C[C@H]1C(=O)N[C@@H](C(C)C)C(=O)N[C@@H](Cc2cccc(O)c2)C(=O)N2CCCC(N2)C(=O)O[C@H](/C(C)=C/C=C/C(=O)N(C)OC)C/C=C/C=C/[C@H](O)[C@H](C)[C@H]1O` (some centres unmarked) [compound 28], in series [1], the “Selectivity index (CC50/EC50)” value was 28.2 and the “potency” value is “very potent”. For the same molecule, in series [1] (setting [4]), it took 0.628 µM to reach a half-maximal effect (EC50) and the EC90 amounted to 4 µM. In “Solubility in PBS pH 7.4”, the “solubility compared to sanglifehrin A (5) and cyclosporine A (1) (in words)” value is on record as “increased solubility”; the solubility at 4 h worked out at 78 µM (≈ 63 µg/mL). In series [2], this molecule yielded a 50% cytotoxic concentration (CC50) at 72 h of 17.7 µM.

With `CC(=O)CC[C@H]1C(=O)N[C@@H](C(C)C)C(=O)N[C@@H](Cc2cccc(O)c2)C(=O)N2CCCC(N2)C(=O)O[C@H](/C(C)=C/C=C/C(=O)N(CC(C)C)CC(C)C)C/C=C/C=C/[C@H](O)[C@H](C)[C@H]1O` (some centres unmarked) [compound 32], the “potency” value in series [1] was “very potent”. Besides, in series [1] (setting [4]), the EC50 was 0.309 µM and the EC90 was determined as 1.1 µM. For the same molecule, the Solubility in series [3] is 33 µM (≈ 29.4 µg/mL). Moreover, it took 2.1 µM to reach half-maximal cytotoxicity in series [2] (CC50 at 72 h).

`CC(=O)CC[C@H]1C(=O)N[C@@H](C(C)C)C(=O)N[C@@H](Cc2cccc(O)c2)C(=O)N2CCCC(N2)C(=O)O[C@H](/C(C)=C/C=C/C(=O)Nc2ccc(-c3ccccc3)cc2)C/C=C/C=C/[C@H](O)[C@H](C)[C@H]1O` (some centres unmarked) [compound 41]: in series [1], the “Selectivity index (CC50/EC50)” value is greater than 481 and the “potency” value is “very potent”. In addition, in series [1] (setting [4]), the EC50 stood at 0.208 µM and the concentration for an effect of 90% (EC90) came out at 1.1 µM. The cytotoxic concentration (CC50) at 72 h in series [2] was greater than 100 µM.

As for `CC(=O)CC[C@H]1C(=O)N[C@@H](C(C)C)C(=O)N[C@@H](Cc2cccc(O)c2)C(=O)N2CCCC(N2)C(=O)O[C@H](/C(C)=C/C=C/C(=O)N(C)C2CCCCC2)C/C=C/C=C/[C@H](O)[C@H](C)[C@H]1O` (some centres unmarked) [compound 45], in series [1], the “Selectivity index (CC50/EC50)” value was 449 and the “potency” value was “very potent”. For the same molecule, in series [1] (setting [4]), the 50% effective concentration (EC50) was 0.148 µM and the concentration for an effect of 90% (EC90) was 1.9 µM. Further, the CC50 at 72 h in series [2] came to 66.4 µM.

`CC(=O)CC[C@H]1C(=O)N[C@@H](C(C)C)C(=O)N[C@@H](Cc2cccc(O)c2)C(=O)N2CCCC(N2)C(=O)O[C@H](/C(C)=C/C=C/C(=O)NC2CCCCC2)C/C=C/C=C/[C@H](O)[C@H](C)[C@H]1O` (some centres unmarked) [compound 51]: in series [1], the “Selectivity index (CC50/EC50)” value was greater than 298 and the “potency” value was “very potent”. In series [1] (setting [4]), this molecule showed a concentration for a half-maximal effect (EC50) of 0.336 µM and a 90% effect concentration (EC90) of 4.2 µM. This molecule displayed a CC50 at 72 h in series [2] greater than 100 µM.

As for `CC(=O)CC[C@H]1C(=O)N[C@@H](C(C)C)C(=O)N[C@@H](Cc2cccc(O)c2)C(=O)N2CCC[C@H](N2)C(=O)O[C@H](/C(C)=C/CO)C/C=C/C=C/[C@H](O)[C@H](C)[C@H]1O` [hydroxymacrocycle, 6, reference compound], the “potency” value in series [1] is “less potent”. Also, the EC50 in series [1] (read-out: EC50) came to 8.4 µM. For the same molecule, the EC90 in series [1] (read-out: EC90) turned out to be 39.7 µM. Moreover, the half-maximal cytotoxic concentration (CC50) in the series on Huh5.2 cells was 83.6 µM.
